Laboratory results as given in US11034980B2, “Microbial engineering for the production of isoprenoids” (Massachusetts Institute of Technology, priority 2018, dated 2021).
Read-outs that look alike come from different tables or passages of the source. Values belong to the molecule of their own block, whether it stands above or below them.

Columns and labels:
[1] = tested on: multi-enzyme system (CK, IPK, IDI, IspA, GGPPS, TDS); experiment: Titration of cofactors and potential inhibitors in the taxadiene multi-enzyme system; type: biochemical
Experimental: The multi-enzyme system reactions were carried out in 50 mM ammonium bicarbonate (pH 7.4) with 10 mM MgCl2, 2 mM MnCl2, 0.05% (w/v) Tween 20, 10 mM ATP, and 5 mM isoprenol at 30° C. unless otherwise stated. The solution in glass GC vials (Agilent) were overlaid with 1/10 volume of dodecane to entrap the volatile isoprenoids. An initial estimated optimal concentration of each enzyme was calculated using the rates determined by individual enzyme assays. The final optimized enzyme concentrations were determined to be 25 μg/mL CK, 15 μg/mL IPK, 25.4 μg/mL IDI, 37.15 μg/mL IspA, 8.15 μg/mL GGPPS, and 25 μg/mL for TDS.
A possible explanation for such inhibitions could be that the enzymes would salt out when a combined amount of >20 mM ATP+ADP (sodium salts) are added to the mixture. […] Since 8 moles of ATP are necessary for the synthesis of 1 mole of taxadiene, salting out of proteins by high concentrations of ATP sodium salt limits that maximum titer of taxadiene that can be achieved using this system making ATP the limiting reagent. […] Furthermore, the consumption of isoprenol in this process could not be determined due to the high variability the utilized GC-FID assay which could not accurately measure such small changes in isoprenol concentration.

[2] = biological target: Farnesyl pyrophosphate synthase (IspA) (Escherichia coli, UniProt P22939); conditions: cited from earlier work; for Km: Ref Ku et al., 2005, Weaver et al., 2015
Sequence of Farnesyl pyrophosphate synthase (IspA) (P22939 whole entry): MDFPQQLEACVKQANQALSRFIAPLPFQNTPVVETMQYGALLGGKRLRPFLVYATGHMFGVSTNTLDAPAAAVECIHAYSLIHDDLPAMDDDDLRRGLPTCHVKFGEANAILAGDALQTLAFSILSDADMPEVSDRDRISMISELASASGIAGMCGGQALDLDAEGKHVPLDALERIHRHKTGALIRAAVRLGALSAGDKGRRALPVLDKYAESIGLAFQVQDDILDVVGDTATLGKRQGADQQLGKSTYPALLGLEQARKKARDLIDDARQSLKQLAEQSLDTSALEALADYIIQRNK

[3] = biological target: T1, choline kinase from Saccharomyces cerevisiae (ScCK) (Saccharomyces cerevisiae, UniProt P20485); conditions: Table 6, Ref Chatzivasileiou et al., 2018; cited from earlier work
T1 construct: S. cerevisiae (AAA34499.1), codon optimized; made in house; host or cells: E. coli BL21 (DE3)
T1 sequence (P20485 1-582): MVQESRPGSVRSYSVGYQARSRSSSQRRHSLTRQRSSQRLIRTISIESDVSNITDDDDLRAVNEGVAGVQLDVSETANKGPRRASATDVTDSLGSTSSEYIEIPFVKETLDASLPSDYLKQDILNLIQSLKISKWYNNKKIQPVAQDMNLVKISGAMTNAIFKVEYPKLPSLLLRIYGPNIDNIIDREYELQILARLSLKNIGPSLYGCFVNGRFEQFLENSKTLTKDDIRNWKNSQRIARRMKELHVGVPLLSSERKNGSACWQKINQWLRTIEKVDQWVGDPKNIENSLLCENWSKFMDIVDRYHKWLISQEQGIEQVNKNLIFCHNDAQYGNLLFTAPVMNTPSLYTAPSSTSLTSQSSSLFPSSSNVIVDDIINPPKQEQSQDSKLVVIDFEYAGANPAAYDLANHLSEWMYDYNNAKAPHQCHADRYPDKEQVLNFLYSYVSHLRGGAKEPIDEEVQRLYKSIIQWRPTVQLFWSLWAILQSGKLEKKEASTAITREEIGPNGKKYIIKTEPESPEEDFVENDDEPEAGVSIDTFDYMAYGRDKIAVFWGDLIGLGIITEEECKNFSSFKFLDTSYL

[4] = biological target: T2, isopentenyl phosphate kinase (IPK) (Arabidopsis thaliana, UniProt Q8H1F7); experiment: IPK kinetics by ATP consumption, PK-LDH coupled NADH assay; type: biochemical; conditions: 10 mM ATP, 30° C., pH 7.4
T2 construct: Arabidopsis thaliana (AAN12957.1), codon optimized; made in house; host or cells: E. coli BL21 (DE3)
T2 sequence (Q8H1F7 1-332): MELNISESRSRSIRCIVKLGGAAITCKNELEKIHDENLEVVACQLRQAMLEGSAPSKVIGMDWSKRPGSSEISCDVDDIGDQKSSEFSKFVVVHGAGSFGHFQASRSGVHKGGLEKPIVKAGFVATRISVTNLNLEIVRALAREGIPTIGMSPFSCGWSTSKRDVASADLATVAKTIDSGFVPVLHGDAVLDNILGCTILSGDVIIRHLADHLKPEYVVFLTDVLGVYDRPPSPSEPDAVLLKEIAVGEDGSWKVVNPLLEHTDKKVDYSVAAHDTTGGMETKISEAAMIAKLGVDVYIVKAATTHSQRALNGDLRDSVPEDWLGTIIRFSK
Experimental: A single colony from each strain containing one plasmid for the expression of a single enzyme was inoculated into 5 mL of sterile LB media (BD Sciences) with kanamycin and grown overnight at 37° C. One milliliter was then inoculated into a 1 L flask containing 200 mL of sterile SOB media (AMERSCO) with kanamycin. The culture was grown at 30° C. until an optical density (OD) of 0.4-0.6 (λ=600 nm). At this point protein production was induced by the addition of IPTG for a final concentration of 0.1 mM and continued at 30° C. for 3 h. Cells were harvested by centrifugation at 3750 rpm in an Allegra X12R centrifuge (Beckman-Coulter). The supernatant was removed and the cell pellets were frozen at −20° C. until purification. Proteins were visualized by SDS-PAGE performed accordingly to the manufacturer's guidelines (Bio-rad). Gradient (4-20%) gels were purchased from Biorad, as were the Kaleidoscope pre-stained protein ladder, Laemmli 4× sample buffer, Tris-glycine-SDS buffer, and mini-protean electrophoresis chambers. Gels were stained using Instant-Blue (Expedeon). Protein concentrations were very roughly estimated from the gel using Image J (NIH) in order to determine an appropriate amount of resin for purification. Protein Purification All purification steps were performed in a single day on ice and in a cold room when possible. Cell pellets were thawed and resuspended in 30 mL of NPI-10 buffer (50 mM NaH2PO4, 300 mM NaCl, 10 mM imidazole, pH 8.0) and supplemented with 0.5 mM PMSF immediately prior to cell lysis. Cells were lysed by 2-3 passages through an EmulsiFlex-C5 high-pressure homogenizer (Avestin). Lysates were then centrifuged at 4 C for 15 min to remove cellular debris. The clarified lysate was loaded onto a Ni-NTA resin (Gold Bio, capacity 50 mg/mL) which was housed in a gravity column (Thermofisher) and was pre-equilibrated with 10 column volumes (CV) of NPI-10 buffer. The column was then washed with 10 CV of NPI-20 buffer (20 mM imidazole). The enzyme was then eluted from the column by 3 CV using NPI-250 buffer (250 mM imidazole). Enzymes were then exchanged into 50 mM Tris-HCl pH 7.5 using 10 kDa Microseps (Millipore) by centrifugation and repeated buffer exchanges until the imidazole was calculated to be under 1 mM. […] Enzyme concentration was determined using a bicinchoninic acid (BCA) assay kit from Pierce using bovine serum albumin as a standard (BSA). […] The kinetics for CK were previously determined as described. The kinetics for IPK were determined by ATP consumption using a pyruvate kinase (PK) lactate dehydrogenase (LDH) coupled assay (FIGS. 16A & 16B). […] NADH was made fresh each time and the appropriate concentration was determined by constructing a standard curve using a SpectraMax M3 and selecting the highest value in the linear range. […]

[5] = tested on: Geranylgeranyl pyrophosphate synthase (GGPPS); conditions: reported elsewhere (Hefner et al., 1998); cited from earlier work
[6] = substrate: C=C(C)CCO; experiment: In vitro kinetic assay of purified choline kinase with isoprenol or prenol (LC-MS/MS); type: biochemical, Saccharomyces cerevisiae; conditions: other: 37° C., fixed ATP concentration, purified ScCK, pH 7.5
Experimental: (§1) Enzyme assays for screening of isopentenol kinase activity was performed as follows. The purified enzymes were added to the enzyme assay master mix for a final concentration of 2 mM ATP, 10 mM MgCl2, 50 mM NH4HCO3 pH 7.5, and 600 μM isoprenol or prenol. They were incubated overnight at 37° C. The reactions were stopped using 5 volumes of ice-cold acetonitrile and centrifuged to remove precipitated proteins using a plate adaptor at 3273×g for 15 min. The supernatant was transferred to a new microplate and frozen at −80° C. The liquid was removed by a 4.5 L lyophilizer (Labconco) and the samples were resuspended in an equal volume of water and centrifuged again prior to quantification using LC-MS/MS.
(§2) Kinetic enzyme assays were conducted using the standard assay conditions described above with the following changes. First, the linear range of the assay was determined over a 90 min period (FIG. 3). Initial velocity appeared linear over this period. Therefore, kinetic assays were quenched after 30 min. For assays at different temperatures, the standard reaction mixture was used while the temperature was varied using a water bath. […] Afterwards, reactions were performed in the standard reaction mixture with NH4HCO3 buffer was adjusted to the appropriate pH. For Michaelis-Menten kinetics, only the concentration of isoprenol or prenol was varied between 1.5-50 μM.

[7] = substrate: CC(C)=CCO; experiment: as above; type: biochemical, Saccharomyces cerevisiae; conditions: other: 37° C., fixed ATP concentration, purified ScCK, pH 7.5
Experimental: as §1, §2

Molecule: Nc1ncnc2c1ncn2[C@@H]1O[C@H](COP(=O)(O)OP(=O)(O)OP(=O)(O)O)[C@@H](O)[C@H]1O [ATP, adenosine triphosphate]
effect on taxadiene production ([1]; 20 mM ATP): completely inhibited
ATP levels that completely inhibited IspA ([2]; Chen et al. (2017)): above 5 mM

Molecule: CC(C)=CCOP(=O)(O)OP(=O)(O)O [DMAPP, dimethylallyl pyrophosphate]
Km ([2]; reaction IPP + DMAPP): 1.3 µM

Molecule: CC(C)=CCO [Prenol, 3-methyl-2-buten-1-ol]
Km [3]: 1110 µM
kcat [3]: 1.13 S^−1

Km [4]: 35.5 µM
kcat [4]: 53.1 S^−1
Molecule: CC(C)=CCOP(=O)(O)O [DMAP, dimethylallyl monophosphate]

Molecule: C=C(C)CCO [Isoprenol, 3-methyl-3-buten-1-ol]
Km [3]: 4540 µM
kcat [3]: 14.7 S^−1

Molecule: CC(C)=CCC/C(C)=C/CC/C(C)=C/COP(=O)(O)OP(=O)(O)O [FPP, farnesyl diphosphate]
Km [5]: 7 µM

Molecule: Nc1ncnc2c1ncn2[C@@H]1O[C@H](COP(=O)(O)OP(=O)(O)O)[C@@H](O)[C@H]1O [ADP, adenosine diphosphate]
effect on taxadiene production ([1]; ADP 0-20 mM in the presence of 10 mM ATP): Some inhibition

Molecule: CC(C)=CCC/C(C)=C/COP(=O)(O)OP(=O)(O)O [GPP, geranyl diphosphate]
Km ([2]; reaction IPP + GPP): 10.3 µM

B1: choline kinase from Saccharomyces cerevisiae (ScCK) (Saccharomyces cerevisiae S288C) (protein)
chain: T1 sequence (P20485 1-582)
notes: S. cerevisiae (AAA34499.1), codon optimized; made in house; host or cells: E. coli BL21 (DE3)
Km [6]: 4539 µM
kcat [6]: 14.7 s⁻¹
Km [7]: 1113 µM
kcat [7]: 1.1 s⁻¹
